Patent publication US11779566B2 (priority 2016, dated 2023)
≈ marks a conversion by molar mass, not a printed value.

How the values were obtained:
vaccinia virus (VV) = conditions: in vitro, read-out: 50% effective concentration [EC50], inhibition of virus replication; cited from earlier work
cowpox virus (CV) = conditions: in vitro, read-out: 50% effective concentration [EC50], inhibition of virus replication; cited from earlier work
ectromelia virus (ECTV) = conditions: read-out: 50% effective concentration [EC50], inhibition of virus replication; cited from earlier work
monkeypox = conditions: in vitro, read-out: 50% effective concentration [EC50], inhibition of virus replication; cited from earlier work
camelpox = conditions: read-out: 50% effective concentration [EC50], inhibition of virus replication; cited from earlier work
variola viruses = conditions: in vitro, read-out: 50% effective concentration [EC50], inhibition of virus replication; cited from earlier work
VV [1] = conditions: lethal infection with VV; treatments delayed up to 72 h post-viral inoculation; cited from earlier work
CV = conditions: lethal infection with CV; treatments delayed up to 72 h post-viral inoculation; cited from earlier work
VV [2] = conditions: orally twice a day at 15 or 50 mg/kg of body weight for 5 days; cited from earlier work
physchem = conditions: aqueous buffer
ECTV = conditions: mouse, in vivo; cited from earlier work

In the case of O=C(NN1C(=O)[C@@H]2[C@@H]3C=C[C@@H]([C@H]4C[C@@H]34)[C@@H]2C1=O)c1ccc(C(F)(F)F)cc1 [ST-246, 4-trifluoromethyl-N-(3,3a,4,4a,5,5a,6,6a-octahydro-1,3-dioxo-4,6-ethenocycloprop[f]isoindol-2-(1H)-yl)-benzamide], the EC50 (vaccinia virus (VV)) is listed as no more than 70 nM, the EC50 (cowpox virus (CV)) is listed as no more than 70 nM and the EC50 (ectromelia virus (ECTV)) is listed as no more than 70 nM. The EC50 (monkeypox) was no more than 70 nM, the EC50 (camelpox) was no more than 70 nM and the EC50 (variola viruses) was no more than 70 nM. For the same compound, the “preventing or reducing mortality” value (VV [1]) was “highly effective in preventing or reducing mortality”, the “preventing or reducing mortality” value (CV) was “highly effective in preventing or reducing mortality” and the tail lesions (VV [2]) was “significantly reduced”. The solubility (physchem) was roughly 2 µg/mL (≈ 5.31 µM), the “preventing or reducing mortality” value (ECTV) was “highly effective in preventing or reducing mortality” and the “toxicity in animal models” value (ECTV) was “nontoxic”.
